Drawing on the SangsterLogP compilation, this text covers logP and logD for 47 compounds.

Data set [1] in a line: method code SF-RC,FL, from DOI: 10.1016/0006-2952(81)90006-x, PMID: 6456004.
Data set [2] is described as follows: method code SF-GLC, from Hermens, J., & De Bruijn, J. (1987). A QSAR study for fish toxicity data of organophosphorus compounds. QSAR in Drug Design and Toxicology, 10, 343-345.
Data set [3] in a line: method code SF-POL, from DOI: 10.1111/j.1365-2044.1990.tb14524.x, PMID: 2316851. The conditions noted are these: pH 7.1.
Assay in data set [4]: not given
The source holds these as a separate data set.

Data set [5] in a line: method code SF, from DOI: 10.1246/bcsj.60.4357.
Assay in data set [6]: not given
This is another data set of the same source.

A short description of data set [7]: method code SF-HPLC, from PMID: 1880579. The conditions noted are these: pH 7.4.
Data set [8] in a line: method code SF, from DOI: 10.1002/jps.2600620102, PMID: 4566530.
Assay in data set [9]: not given
This is another data set of the same source.

Data set [10] can be described thus: method code SF-AS, from DOI: 10.1002/jps.2600600712, PMID: 4398902.
Assay in data set [11]: not given
The source holds these as a separate data set.

Assay in data set [12]: not given
The source holds these as a separate data set.

A short description of data set [13]: method code SF, from DOI: 10.1021/js9601804, PMID: 9344176. The note with it: pH 8.0.
The nature of data set [14]: method code SF, from DOI: 10.1248/cpb.42.1525, PMID: 7923475.
A short description of data set [15]: method code SF-EPR, from DOI: 10.1016/0003-9861(82)90097-2, PMID: 6284047. The note with it: pH 7.4.
Assay in data set [16]: not given
The source holds these as a separate data set.

Assay in data set [17]: not given
The source holds these as a separate data set.

Data set [18] is described as follows: method code SF-AS, from DOI: 10.1080/09553007214550551, PMID: 4537457.
Data set [19] in a line: method code SF, from DOI: 10.1021/jm00111a036, PMID: 2066990.
Data set [20] can be described thus: method code SF-AS, from DOI: 10.1111/j.2042-7158.1989.tb06484.x, PMID: 2570835.
Data set [21] in a line: method code SF-AS, from DOI: 10.1021/jm00307a001, PMID: 5637185.
The nature of data set [22]: method code SF-RC, from DOI: 10.1016/s0969-8051(98)00005-5, PMID: 9720665. The note with it: pH 7.0.
Assay in data set [23]: not given
This is another data set of the same source.

Data set [24] is described as follows: method code SF-RC, from DOI: 10.1016/0048-3575(88)90037-5.
Assay in data set [25]: not given
This is another data set of the same source.

The nature of data set [26]: method code SF-HPLC, from DOI: 10.1021/jm010289a, PMID: 11754587. The note with it: pH 7.0.
A short description of data set [27]: method code SF-HPLC, from DOI: 10.1002/jps.2600810507, PMID: 1403673.
Data set [28] can be described thus: method code SF, from DOI: 10.1007/s00253-012-4358-8, PMID: 23081771. The note with it: pH 7.0.
Data set [29] can be described thus: method code SF-RC, from DOI: 10.1002/jps.2600840617, PMID: 7562417.
The nature of data set [30]: method code SF-AS, from PMID: 2748530.
A short description of data set [31]: method code SF-AS, from DOI: 10.1016/0006-2952(75)90156-2, PMID: 235934. The conditions noted are these: pH 7.4.
Assay in data set [32]: not given
The source holds these as a separate data set.

Data set [33] can be described thus: method code SF-RC, from DOI: 10.1016/0006-2952(81)90006-x, PMID: 6456004.
Data set [34] is described as follows: method code SF-AS, from DOI: 10.1002/qsar.19870060104.
Assay in data set [35]: not given
The source holds these as a separate data set.

A short description of data set [36]: method code SF-RC, from DOI: 10.1016/0006-2952(75)90159-8, PMID: 1168477.
Data set [37] is described as follows: method code SF-HPLC, from DOI: 10.1007/bf03246517.
A short description of data set [38]: method code SF-RC, from DOI: 10.1002/qsar.19880070404. The conditions noted are these: pH 0.0.
Data set [39] is described as follows: method code SF-AS, from Korenman, Y.; Sotnikova, G. (1975). Extraction of vanillins from aqueous solutions. Zh. Prikl. Khim., 48(1)188-191.
A short description of data set [40]: method code SF-AS, from DOI: 10.1002/chin.198419165, PMID: 6653771. The conditions noted are these: pH 2.5.
Assay in data set [41]: not given
The source holds these as a separate data set.

Assay in data set [42]: not given
The source holds these as a separate data set.

Data set [43] is described as follows: method code SF-AS, from DOI: 10.1016/0014-2999(86)90191-3, PMID: 3780854. The note with it: pH 7.4.
The nature of data set [44]: method code SF-AS, from DOI: 10.1021/jm00304a030, PMID: 5793164. The note with it: pH 7.4.
The nature of data set [45]: method code SF, from DOI: 10.1002/jps.2600641111, PMID: 1195110. The note with it: pH 7.4.
The nature of data set [46]: method code SF, from PMID: 15170. The note with it: pH 5.0.

On to `CC(Oc1ccc(Cl)cc1Cl)C(=O)O` (configuration not stated), for which the logP turned out to be 3.43.
On to `NCCc1ccc(O)cc1`, for which the logP in data set [1] was -0.24.
`COP(=S)(OC)Oc1ccc(Cl)cc1C#N` displayed a logP in data set [2] of 3.41.
For orientation: logD means the decadic logarithm of the distribution of all forms, ionised or not, between an organic phase and buffer at a given pH. Low values mean lower lipophilicity, high ones higher lipophilicity. With `NC(=S)NN=C1C=CC(=NNC(N)N)C=C1`, the pH-dependent lipophilicity (logD) in data set [3] was -1.4.
Compound `COc1c(Cl)c(Cl)c(Cl)c(OC)c1OC` displayed a logP in data set [4] of 4.8.
As for `CCc1cc([N+](=O)[O-])cc([N+](=O)[O-])c1O`, the logP in [5] was found to be 2.67.
In [6], `CCCn1cnc2c(N)ncnc21` returned a logP of 0.74.
In the case of `O=[N+]([O-])c1nccn1C1OC(CI)C(O)C1O` (configuration not stated), the logD in [7] was 0.7.
`Cc1cc(C)c2oc(=O)sc2c1` came in with a logP in data set [8] of 3.25.
In the case of `O=C(NCCO[N+](=O)[O-])c1cccnc1`, in data set [9], the logP was -1.02.
`CCN1CCCCCC1=O`: in data set [10], the logP worked out at 0.65.
On to `O=[N+]([O-])c1nccn1C1OCC(I)CC1F` (configuration not stated), for which, in data set [11], the logP turned out to be 0.8.
In the case of `COc1nc(C(Cl)(Cl)Cl)c(Cl)c(OC)c1Cl`, the logP in [12] was determined as 5.48.
Consider `O=C1COc2ccccc2N1`, for which the log distribution coefficient (logD) in data set [13] is 1.31.
In turn, `COC(=O)c1ccccc1` yielded a logP in [14] of 2.09.
`CCC1(C)OCC(C)(C)N1O` (configuration not stated) came in with a pH-dependent lipophilicity (logD) in [15] of 0.57.
In data set [16], `C1COCCOCCOCCO1` gave a logP of -0.04.
As for `CC(C)(C)c1cn2nc(S(N)(=O)=O)sc2n1`, in data set [17], the logP is 2.15.
For the compound `CC(=O)c1ccc(Cl)cc1`, in data set [18], the logP stood at 2.35.
In data set [19], `O=[N+]([O-])c1nccn1CC(O)C/C=C/I` (configuration not stated) displayed a logP of 0.4.
`O=c1[nH][nH]c(=O)c2ccccc12` gave a logP in data set [20] of 0.11.
Regarding `C#CC1(O)CCCCC1`, the logP in data set [21] is 1.73.
In turn, `OC1OC2COC(CI)OC2C(O)C1O` (configuration not stated) registered a logD in [22] of 1.1.
In [23], `O=[N+]([O-])c1nccn1[C@H]1O[C@H](CF)[C@@H](O)[C@@H]1O` showed a logP of 0.04.
`CC(C)Nc1nc(Cl)nc(NCCO)n1`: the logP in data set [24] came to 0.78.
With `O=C(Cn1ccnc1[N+](=O)[O-])NCC(F)(F)C(F)(F)F`, in [25], the logP was 0.76.
Take `CN1C(=O)C(=O)c2ccccc21`: the logD in data set [26] came out at 0.63.
In data set [27], `O=C(O)c1ccc(C(=O)O)cc1` showed a logP of 1.68.
In turn, `C=Cc1ccc(O)cc1` displayed a logD in data set [28] of 2.36.
On to `Nc1ccn(C[C@@H](CO)OCP(=O)(O)O)c(=O)n1`, for which, in data set [29], the logP is -3.17.
In turn, `O=[N+]([O-])c1nccn1CC(O)COCC(F)(F)F` (configuration not stated) gave a logP in data set [30] of 0.46.
`CCOc1ccc([N+](=O)[O-])cc1` displayed a log distribution coefficient (logD) in data set [31] of 2.53.
In [32], `NC(N)=Nc1nc(CSCCC(N)=NS(N)(=O)=O)cs1` registered a logP of -0.56.
With `NCCc1ccccc1`, the logP in data set [33] stood at 1.16.
Compound `O=c1ccoc2cc(O)ccc12` returned a logP in data set [34] of 1.44.
As for `CCCCCCCCO`, the logP in data set [35] was 3.
`C=CCN(C(C)=O)C(C)C` returned a logP in data set [36] of 1.14.
For the compound `OCCc1ccc(O)cc1`, the logP in data set [37] turned out to be 0.69.
The compound `O=C(O)Cc1ccccc1I` came in with a pH-dependent lipophilicity (logD) in [38] of 2.33.
`COc1ccc(C=O)cc1O` returned a logP in data set [39] of 0.97.
In data set [40], `N#CCNc1ccccc1C(=O)O` had a logD of 1.75.
The compound `Cc1ccccc1C` yielded a logP in data set [41] of 3.29.
For `CCOc1ccccc1O`, the logP in data set [42] came out at 1.91.
As to `COc1noc2c1CN(C)CC2`, the logD in [43] worked out at 0.4.
For `Brc1ccc2[nH]ccc2c1`, the logD in [44] was 3.
Turning to `CC(=O)NCCn1c([N+](=O)[O-])cnc1C`, the logD in data set [45] is -0.47.
For the compound `CCC1(CC)C(=O)NC(=O)NC1=O`, the logD in data set [46] came out at 0.71.
